How the values were obtained:
Type in all cases: cell-based, SD rats
[1] = system: rat cerebral cortical neurons treated with Aβ(25-35); assay: Measurement of neuronal cell death induced by Aβ(25-35) (calcein AM uptake, cell viability); conditions: 10 μM Aβ(25-35) and Compound 11 100 nM, 8-well culture slide, 4 days; FIG. 2; vs control group
Description: Cerebral cortical neurons of SD rats (embryonic day 18) were primary cultured. The neurons were seeded in a 24-well culture dish at a density of 2.86×10^5 cells/cm^2, and after 3 days, simultaneously treated with 10 μM partial peptide including the 25 to 35-amino acid residue of Aβ (hereinafter called Aβ(25-35)) and each of Compounds 1 to 5 (100 nM). After another 4 days, 6 μM calcein AM was added, the whole was incubated for 40 minutes at 37° C., and the fluorescence intensity at 485 nm was measured so that the uptake of calcein AM into the neurons was calculated to determine the cell viability. The group without the Aβ(25-35) treatment and the administration of any medical agents was defined as a control group, and the group with the Aβ(25-35) treatment but without the administration of any medical agents was defined as a vehicle group.
Separately, the neurons were seeded in an 8-well culture slide at a density of 2.14×10^5 cells/cm^2, and after 5 days, simultaneously treated with 10 μM Aβ(25-35) and Compound 11 (100 nM). After another 4 days, 6 μM calcein AM was added, and the whole was incubated for 40 minutes at 37° C. Then the neurons were fixed, and the fluorescence image was obtained under a fluorescence microscope AX-80. The uptake of calcein AM into the neurons was quantitatively analyzed with an ATTO Densitograph (ATTO, Tokyo, Japan) to determine the cell viability. […]

[2] = system: rat cerebral cortical neurons treated with Aβ(1-42); assay: Measurement of dendrite atrophy induced by Aβ(1-42) (MAP2 immunostaining); conditions: 5 μM Aβ(1-42), after 3 days each of Compounds 5, 11, 21, and 22 (1 μM), another 5 days; FIG. 5; vs control group
Description: Cerebral cortical neurons of SD rats (embryonic day 18) were primary cultured. The neurons were seeded in an 8-well culture slide at a density of 2.6×10^5 cells/cm^2. After 5 days, the neurons were treated with 5 μM Aβ(1-42), and after another 3 days, treated with each of Compounds 5, 11, 21, and 22 (each 1 μM). After another 5 days, immunostaining was carried out. The used primary antibody was a rabbit polyclonal antibody against MAP2 that is as a marker protein of the dendrite (a dilution degree of 500; Chemicon, Temecula, Calif., USA). The used secondary antibody was Alexa Fluor 568 labeled goat anti-rabbit IgG (a dilution degree of 300; Molecular Probes, Carlsbad, Calif., USA). The neurons were observed under a fluorescence microscope AX-80 (Olympus, Tokyo, Japan) and the fluorescence image was obtained. The average length of the dendrites per neuron was measured with Neurocyte Ver. 1.5 (Toyobo, Osaka, Japan). The group without the Aβ(1-42) treatment and the administration of any medical agents was defined as a control group, and the group with the Aβ(1-42) treatment but without the administration of any medical agents was defined as a vehicle group.

[3] = system: rat cerebral cortical neurons treated with Aβ(1-42); assay: Measurement of axon atrophy induced by Aβ(1-42) (phosphorylated neurofilament H immunostaining); conditions: 5 μM Aβ(1-42), after 3 days each of Compounds 5, 11, 21, and 22 (1 μM), another 5 days; FIG. 6; vs control group
Description: Cerebral cortical neurons of SD rats (embryonic day 18) were primary cultured. The neurons were seeded in an 8-well culture slide at a density of 2.6×10^5 cells/cm^2, after 5 days, treated with 5 μM Aβ(1-42), and after another 3 days, treated with each of Compounds 5, 11, 21, and 22 (each 1 μM). After another 5 days, immunostaining was carried out. The used primary antibody was a mouse monoclonal antibody against phosphorylated neurofilament H that is a marker protein of the axon (a dilution degree of 500; Sternberger Monoclonals, MD, USA). The used secondary antibody was Alexa Fluor 488 labeled goat anti-[…] IgG (a dilution degree of 300; Molecular Probes, Carlsbad, Calif., USA). The neurons were observed under a fluorescence microscope AX-80 (Olympus, Tokyo, Japan) and the fluorescence image was obtained. The average length of the axons per neuron was measured with Neurocyte Ver. 1.5 (Toyobo, Osaka, Japan). The group without the Aβ(1-42) treatment and the administration of any medical agents was defined as a control group, and the group with the Aβ(1-42) treatment but without the administration of any medical agents was defined as a vehicle group.

Row | SMILES | cell viability (uptake of calcein AM, fluorescence image) [1] | dendrite outgrowth effect (average length of the dendrites per neuron) [2] | axon outgrowth effect (average length of the axons per neuron) [3]
1 | N#CC12CCC3(OCCO3)C3=COC(Cc4ccc(O)cc41)C32 (stereo not drawn) [Compound 11, 9-hydroxy-2,3,5a,10c-tetrahydro-1H,6H-5-oxa-3-oxo-acephenanthrylene-10b-carbonitrile ethylene ketal] | cell viability remarkably higher than that of the control group |  | 
2 | COc1cc2c(cc1O)C1(C#N)CCC3(OCCO3)C3=COC(C2)C31 (stereo not drawn) [Compound 22, 9-hydroxy-8-methoxy-2,3,5a,10c-tetrahydro-1H,6H-5-oxa-3-oxo-acephenanthrylene-10b-carbonitrile ethylene ketal] |  | dendrite outgrowth effect remarkably higher than that of the control group | axon outgrowth effect remarkably higher than that of the control group

Source: patent US20110021625A1, “NEURONAL CELL DEATH INHIBITOR” (LEAD CHEMICAL CO., LTD., priority 2008, published 2011)
